According to patent US10815205B2, “Amide-substituted phenyltriazole derivatives and uses thereof” (BAYER PHARMA AKTIENGESELLSCHAFT, priority 2016, dated 2020):

Legend:
human V1a receptor = target: T1, human V1a receptor (Homo sapiens, UniProt P37288); test: Cellular in vitro assay for vasopressin receptor activity, V1a receptor cell line (aequorin luminescence); format: cell-based; conditions: Table 1A; for IC50: CHO cell line transfected with human V1a receptor, [Arg8]-vasopressin at EC50, read-out: IC50 hV1a; for ratio IC50 hV2/hV1a: selectivity V1a over V2
T1 construct: expressed in transfected cells; host or cells: CHO K1 (ATCC), also stably transfected with a modified aequorin
Method: (§1) B-1. Cellular In Vitro Assay for Determining Vasopressin Receptor Activity
(§2) The identification of agonists and antagonists of the V1a and V2 vasopressin receptors from humans, rats and dogs as well as the quantification of the activity of the compounds of the invention is carried out using recombinant cell lines. These cell lines originally derive from a hamster's ovary epithelial cell (Chinese Hamster Ovary, CHO K1, ATCC: American Type Culture Collection, Manassas, Va. 20108, USA). The test cell lines constitutively express the human, rat or dog V1a or V2 receptors. In case of the Gαq-coupled V1a receptors, cells are also stably transfected with a modified form of the calcium-sensitive photoproteins aequorin (human and rat V1a) or obe-lin (dog V1a), which, after reconstitution with the cofactor coelenterazine, emit light when there are increases in free calcium concentrations [Rizzuto R, Simpson A W, Brini M, Pozzan T, Nature 358, 325-327 (1992); Illarionov B A, Bondar V S, Illarionova V A, Vysotski E S, Gene 153 (2), 273-274 (1995)]. The resulting vasopressin receptor cells react to stimulation of the recombinantly expressed V1a receptors by intracellular release of calcium ions, which can be quantified by the resulting photoprotein luminescence. The Gs-coupled V2 receptors are stably transfected into cell lines expressing the gene for firefly luciferase under control of a CRE-responsible promoter. Activation of V2 receptors induces the activation of the CRE-responsive promoter via cAMP increase, thereby inducing the expression of firefly luciferase. The light emitted by photoproteins of V1a cell lines as well as the light emitted by firefly luciferase of V2 cell lines corresponds to the activation or inhibition of the respective vasopressin receptor. The bioluminescence of the cell lines is detected using a suitable luminometer [Milligan G, Marshall F, Rees S, Trends in Pharmacological Sciences 17, 235-237 (1996)].
Vasopressin V1a Receptor Cell Lines:
On the day before the assay, the cells are plated out in culture medium (DMEM/F12, 2% FCS, 2 mM glutamine, 10 mM HEPES, 5 μg/ml coelenterazine) in 384-well microtiter plates and kept in a cell incubator (96% humidity, 5% v/v CO2, 37° C.). On the day of the assay, test compounds in various concentrations are placed for 10 minutes in the wells of the microtiter plate before the agonist [Arg^8]-vasopressin at EC50 concentration is added. The resulting light signal is measured immediately in a luminometer.

human V2 receptor = target: T2, human V2 receptor (Homo sapiens, UniProt P30518); test: Cellular in vitro assay for vasopressin receptor activity, V2 receptor cell line (CRE-luciferase); format: cell-based; conditions: Table 1A; CHO cell line transfected with human V2 receptor; [Arg8]-vasopressin at EC50; read-out: IC50 hV2
T2 construct: expressed in transfected cells; host or cells: CHO K1 (ATCC) expressing firefly luciferase under a CRE-responsive promoter
Method: as §1, §2
Vasopressin V2 Receptor Cell Lines:
On the day before the assay, the cells are plated out in culture medium (DMEM/F12, 2% FCS, 2 mM glutamine, 10 mM HEPES) in 384-well microtiter plates and kept in a cell incubator (96% humidity, 5% v/v CO2, 37° C.). On the day of the assay, test compounds in various concentrations and the agonist [Arg^8]-vasopressin at EC50 concentration are added together to the wells, and plates are incubated for 3 hours in a cell incubator. Upon addition of the cell lysis reagent Triton™ and the substrate luciferin, luminescence of firefly luciferase is measured in a luminometer.

T2 sequence (P30518 whole entry): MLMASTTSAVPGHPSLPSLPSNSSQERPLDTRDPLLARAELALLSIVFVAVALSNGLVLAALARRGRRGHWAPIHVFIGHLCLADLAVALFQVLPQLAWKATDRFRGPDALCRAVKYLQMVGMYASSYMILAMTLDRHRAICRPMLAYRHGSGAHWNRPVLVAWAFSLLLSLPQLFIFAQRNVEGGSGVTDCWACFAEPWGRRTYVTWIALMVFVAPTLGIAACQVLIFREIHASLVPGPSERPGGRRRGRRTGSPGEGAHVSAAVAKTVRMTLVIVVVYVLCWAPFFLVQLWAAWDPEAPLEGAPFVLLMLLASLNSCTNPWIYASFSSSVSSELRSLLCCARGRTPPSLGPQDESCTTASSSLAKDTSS
T1 sequence (P37288 whole entry): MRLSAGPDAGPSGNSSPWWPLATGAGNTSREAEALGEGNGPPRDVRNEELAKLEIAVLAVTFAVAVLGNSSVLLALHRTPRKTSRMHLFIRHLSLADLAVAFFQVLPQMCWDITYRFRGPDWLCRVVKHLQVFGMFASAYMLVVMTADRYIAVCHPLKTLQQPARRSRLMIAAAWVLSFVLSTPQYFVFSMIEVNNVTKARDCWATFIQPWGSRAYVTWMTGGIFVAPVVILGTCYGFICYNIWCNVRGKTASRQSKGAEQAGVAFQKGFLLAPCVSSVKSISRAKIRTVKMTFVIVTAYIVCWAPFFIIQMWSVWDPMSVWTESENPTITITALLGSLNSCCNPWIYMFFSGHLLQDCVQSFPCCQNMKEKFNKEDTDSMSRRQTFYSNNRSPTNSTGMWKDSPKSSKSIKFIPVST

SMILES	IC50 (human V1a receptor) [µM]	ratio IC50 hV2/hV1a (human V1a receptor)	IC50 (human V2 receptor) [µM]
CS(=O)(=O)c1ccccc1-n1nc(Cn2nc(-c3ccc(Cl)cc3)n(C[C@H](O)C(F)(F)F)c2=O)nc1C(N)=O [Example 7, 3-({3-(4-Chlorophenyl)-5-oxo-4-[(2S)-3,3,3-trifluoro-2-hydroxypropyl]-4,5-dihydro-1H-1,2,4-triazol-1-yl}methyl)-1-[2-(methylsulfonyl)phenyl]-1H-1,2,4-triazole-5-carboxamide]	0.0175	40.7	0.712
CCOc1ccccc1-n1nc(Cn2nc(-c3ccc(Cl)cc3)n(C[C@@H](O)C(F)(F)F)c2=O)nc1C(N)=O [Example 10, 3-({3-(4-Chlorophenyl)-5-oxo-4-[(2R)-3,3,3-trifluoro-2-hydroxypropyl]-4,5-dihydro-H-1,2,4-triazol-1-yl}methyl)-1-(2-ethoxyphenyl)-1H-1,2,4-triazole-5-carboxamide]	0.0082	108.5	0.89
NC(=O)c1nc(Cn2nc(-c3ccc(Cl)cc3)n(C[C@H](O)C(F)(F)F)c2=O)nn1-c1ccccc1C(F)(F)F [Example 1, 3-({3-(4-Chlorophenyl)-5-oxo-4-[(2S)-3,3,3-trifluoro-2-hydroxypropyl]-4,5-dihydro-H-1,2,4-triazol-1-yl}methyl)-1-[2-(trifluoromethyl)phenyl]-1H-1,2,4-triazole-5-carboxamide]	0.00058	41.4	0.0239
CCOc1ccccc1-n1nc(Cn2nc(-c3ccc(Cl)cc3)n(C[C@H](O)C(F)(F)F)c2=O)nc1C(N)=O [Example 5, 3-({3-(4-Chlorophenyl)-5-oxo-4-[(2S)-3,3,3-trifluoro-2-hydroxypropyl]-4,5-dihydro-1H-1,2,4-triazol-1-yl}methyl)-1-(2-ethoxyphenyl)-1H-1,2,4-triazole-5-carboxamide]	0.0016	24.1	0.0385
NC(=O)c1nc(Cn2nc(-c3ccc(Cl)cc3)n(C[C@@H](O)C(F)(F)F)c2=O)nn1-c1ccccc1C(F)(F)F [Example 2, 3-({3-(4-Chlorophenyl)-5-oxo-4-[(2R)-3,3,3-trifluoro-2-hydroxypropyl]-4,5-dihydro-1H-1,2,4-triazol-1-yl}methyl)-1-[2-(trifluoromethyl)phenyl]-1H-1,2,4-triazole-5-carboxamide]	0.00235	74.5	0.175
NC(=O)c1nc(Cn2nc(-c3ccc(Cl)cc3)n(CC(=O)C(F)(F)F)c2=O)nn1-c1ccccc1C(F)(F)F [Example 8, 3-{[3-(4-chlorophenyl)-5-oxo-4-(3,3,3-trifluoro-2-oxopropyl)-4,5-dihydro-H-1,2,4-triazol-1-yl]methyl}-1-[2-(trifluoromethyl)phenyl]-1H-1,2,4-triazole-5-carboxamide (ketone form) or 3-{[3-(4-chlorophenyl)-5-oxo-4-(3,3,3-trifluoro-2,2-dihydroxypropyl)-4,5-dihydro-H-1,2,4-triazol-1-yl]methyl}-1-[2-(trifluoromethyl)phenyl]-1H-1,2,4-triazole-5-carboxamide (hydrate form)]	0.00185	18.2	0.0337
CNC(=O)c1ccccc1-n1nc(Cn2nc(-c3ccc(Cl)cc3)n(C[C@H](O)C(F)(F)F)c2=O)nc1C(N)=O [Example 6, 3-({3-(4-Chlorophenyl)-5-oxo-4-[(2S)-3,3,3-trifluoro-2-hydroxypropyl]-4,5-dihydro-1H-1,2,4-triazol-1-yl}methyl)-1-[2-(methylcarbamoyl)phenyl]-1H-1,2,4-triazole-5-carboxamide]	0.0129	75.6	0.975
NC(=O)c1nc(Cn2nc(-c3ccc(Cl)cc3)n(CC(=O)C(F)(F)F)c2=O)nn1-c1ccccc1OC(F)(F)F [Example 9, 3-{[3-(4-chlorophenyl)-5-oxo-4-(3,3,3-trifluoro-2-oxopropyl)-4,5-dihydro-H-1,2,4-triazol-1-yl]methyl}-1-[2-(trifluoromethoxy)phenyl]-1H-1,2,4-triazole-5-carboxamide (ketone form) or 3-{[3-(4-chlorophenyl)-5-oxo-4-(3,3,3-trifluoro-2,2-dihydroxypropyl)-4,5-dihydro-1H-1,2,4-triazol-1-yl]methyl}-1-[2-(trifluoromethoxy)phenyl]-1H-1,2,4-triazole-5-carboxamide (hydrate form)]	0.00895	11.9	0.106
NC(=O)c1nc(Cn2nc(-c3ccc(Cl)cc3)n(C[C@@H](O)C(F)(F)F)c2=O)nn1-c1ccccc1OC(F)(F)F [Example 4, 3-({3-(4-Chlorophenyl)-5-oxo-4-[(2R)-3,3,3-trifluoro-2-hydroxypropyl]-4,5-dihydro-1H-1,2,4-triazol-1-yl}methyl)-1-[2-(trifluoromethoxy)phenyl]-1H-1,2,4-triazole-5-carboxamide]	0.00965	68.9	0.665
NC(=O)c1nc(Cn2nc(-c3ccc(Cl)cc3)n(C[C@H](O)C(F)(F)F)c2=O)nn1-c1ccccc1OC(F)(F)F [Example 3, 3-({3-(4-Chlorophenyl)-5-oxo-4-[(2S)-3,3,3-trifluoro-2-hydroxypropyl]-4,5-dihydro-1H-1,2,4-triazol-1-yl}methyl)-1-[2-(trifluoromethoxy)phenyl]-1H-1,2,4-triazole-5-carboxamide]	0.00125	60.4	0.0755
